Reference: US20260217709A1, “2-OXOQUINAZOLINE DERIVATIVES AS METHIONINE ADENOSYLTRANSFERASE 2A INHIBITORS” (IDEAYA BIOSCIENCES, INC., priority 2018, published 2026)
Blank lines part the entries; values can stand above or below the compound they belong to.

Tests used:
[1] = target: T1, hMAT2A (Homo sapiens, UniProt P31153); assay: Phosphate Sensor Fluorescence Assay (MAT2A enzyme inhibition); format: biochemical; design: Human MAT2A: Cepter, amino acids 1-395; purchased Cepter clone ID 329, lot 00023-123; clone ID 334, lot 00023-148; details: L-methionine 500 uM, ATP 500 uM, 1 hour room temperature
T1 sequence (P31153 whole entry, the tested form may be a part): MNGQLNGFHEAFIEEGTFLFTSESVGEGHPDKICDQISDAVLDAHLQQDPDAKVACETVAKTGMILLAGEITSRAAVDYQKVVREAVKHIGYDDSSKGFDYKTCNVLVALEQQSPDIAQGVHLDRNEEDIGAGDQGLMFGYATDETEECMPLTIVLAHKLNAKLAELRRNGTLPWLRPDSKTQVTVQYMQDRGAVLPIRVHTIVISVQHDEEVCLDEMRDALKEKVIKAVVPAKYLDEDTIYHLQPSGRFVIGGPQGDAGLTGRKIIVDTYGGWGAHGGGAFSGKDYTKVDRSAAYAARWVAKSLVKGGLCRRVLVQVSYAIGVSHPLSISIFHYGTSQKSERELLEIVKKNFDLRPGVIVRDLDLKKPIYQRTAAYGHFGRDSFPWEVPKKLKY
Procedure: (§1) The ability of the compound of present disclosure to inhibit MAT2A enzyme was determined using the Malachite Green or Phosphate Sensor Fluorescence Assay described below.
B. Phosphate Sensor Fluorescence Assay
MAT2A enzyme is incubated with a test compound in DMSO or DMSO and its substrates (L-methionine and ATP) in a microtiter plate. The enzymatic reaction is stopped by the addition of Working Phosphate Sensor Mixture. The plate is analyzed for fluorescence at 450 nm.
Test compounds or DMSO were added to the appropriate well suing D300e digital dispenser. 5 μl/well of Assay Buffer was added to the wells corresponding to the negative control and 5 μl/well of MAT2A was added to all the wells except for those corresponding to the negative control. After incubating the plate at room temperature for 15 minutes, 5 μl/well of the 1 mM L-methionine/1 mM ATP mixture was added to all wells. The plate was centrifuged at 1000 rpm for 1 minute and then incubated at room temperature for 1 hour. 5 μl of the Working Phosphate Sensor Mixture was added to all wells and the plate was centrifuged at 1000 rpm for 1 minute. The plate was read for fluorescence at 450 nm after exciting at 430 nm.
Percent inhibition was calculated in Chemical and Biological Information System (CBIS), (ChemInnovation Software Inc.). […]

[2] = target: T1, hMAT2A; assay: Malachite Green Assay (MAT2A enzyme inhibition); format: biochemical; design: amino acids 1-395; purchased Cepter; details: hMAT2A 50 nM, substrates 500 uM each, reaction time 1 hour, 23° C.
Procedure: as §1
L-methionine Substrate: Alfa Aesar catalog #J61904
ATP Substrate: Alfa Aesar cat #J60336
Malachite Green Detection Reagent: Millipore Sigma catalog #MAK307-1KT
Assay buffer: 50 mM Tris, pH 7.5/50 mM KCl/10 mM MgCl2/0.01% Brij-35/1 mM DTT/0.1% BGG
The plate was centrifuged at 1000 rpm for 1 minute and then incubated at room temperature for 1 hour. 5 μL of malachite green detection reagent was added to all the test wells and the plate was centrifuged at 1000 rpm for 1 minute and then incubated at room temperature for 30 minutes. The plate was read for absorbance at 620 nm on a plate reader (e.g., Infinite M1000).

- IC50 ([1]; numeric bound): > 10 µM
Compound: 7-chloro-1-(2-fluoro-3- metho xyphenyl)-4- hydroxyhydroquinazolin-2-one [Example 332]

- IC50 [2]: 1 to 10 µM
Compound: Nc1nc(=O)n(-c2ccccc2)c2cc(Cl)ccc12 [Example 59, 4-amino-7-chloro-1-phenylquinazolin-2(1H)-one]

- IC50 ([1]; class symbols): < 0.2 µM
Compound: 1[2-(difluoromethoxy)(3-pyridyl)]-7- cyclopropyl-4-[(cyclopropylmethyl)- amino]hydroquinazolin-2-one [Example 416]
